According to ChEMBL document CHEMBL1201862, “PubChem BioAssay data set” (2004):
Calls of active or inactive are those of the source.

Columns and labels:
Prothrombin = Prothrombin (Homo sapiens, UniProt P00734); assay: Thrombin 1536 HTS Dose Response Confirmation. [Related pubchem assays: 1046 (Thrombin 1536 HTS; hits were confirmed in this assay)]; type: functional
HEK293 = assay: EBV LMP1 TES2 canonical NF-kB signalling blockers – cell-based, HEK293, luciferase, cherry-pick, dose response (AID 588343); type: functional, Homo sapiens; conditions: Homo sapiens, HEK293
[1] = biological target: T1, Calpain-2 catalytic subunit (Sus scrofa, UniProt P43367); assay: m-calpain protease blockers, concentration series – biochemical, fluorogenic peptide substrate, dose response (AID 1420); type: functional
T1 sequence (P43367 whole entry): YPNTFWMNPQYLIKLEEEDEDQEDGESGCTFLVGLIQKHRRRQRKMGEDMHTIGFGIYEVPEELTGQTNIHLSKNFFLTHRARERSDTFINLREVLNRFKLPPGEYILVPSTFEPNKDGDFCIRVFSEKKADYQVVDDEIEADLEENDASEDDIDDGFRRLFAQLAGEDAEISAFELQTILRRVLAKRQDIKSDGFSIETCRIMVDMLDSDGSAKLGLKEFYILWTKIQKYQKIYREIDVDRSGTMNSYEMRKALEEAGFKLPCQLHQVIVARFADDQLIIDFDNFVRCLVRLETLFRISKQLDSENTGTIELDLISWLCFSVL

Leucine aminopeptidase = biological target: T2, Leucine aminopeptidase (Plasmodium falciparum 3D7, UniProt Q8IL11); assay: P. falciparum M17LAP inhibitors, primary screen, biochemical, fluorogenic H-Leu-NHMec substrate, 1536-well (AID 1619); type: functional
T2 sequence (Q8IL11 whole entry): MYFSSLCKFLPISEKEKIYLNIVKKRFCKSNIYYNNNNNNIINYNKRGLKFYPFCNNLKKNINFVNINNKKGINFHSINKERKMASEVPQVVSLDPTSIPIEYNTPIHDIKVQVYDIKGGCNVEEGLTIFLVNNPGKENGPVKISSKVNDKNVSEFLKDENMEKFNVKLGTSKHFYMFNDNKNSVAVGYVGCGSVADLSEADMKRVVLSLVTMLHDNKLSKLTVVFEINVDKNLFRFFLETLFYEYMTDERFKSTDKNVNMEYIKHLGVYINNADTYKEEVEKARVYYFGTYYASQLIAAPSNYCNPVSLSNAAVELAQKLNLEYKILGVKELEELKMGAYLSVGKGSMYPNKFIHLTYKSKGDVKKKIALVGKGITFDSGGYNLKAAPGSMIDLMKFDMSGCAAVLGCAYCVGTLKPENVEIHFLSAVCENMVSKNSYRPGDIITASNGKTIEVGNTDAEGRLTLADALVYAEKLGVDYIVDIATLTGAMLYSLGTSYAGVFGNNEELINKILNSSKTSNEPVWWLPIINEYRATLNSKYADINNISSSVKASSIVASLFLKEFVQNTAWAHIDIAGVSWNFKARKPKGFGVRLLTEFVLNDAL

[2] = NIH-3T3 fibroblast cytotoxicity, dose response, cytotoxicity control, cell-based, fluorescence, Alamar Blue, secondary assay (AID 2327); type: functional;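 also: NIH-3T3 mouse fibroblasts cultured with fluconazole at 8 µg/mL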
[3] = biological target: FAD-linked sulfhydryl oxidase ALR (Homo sapiens, UniProt P55789); assay: ALR-catalysed DTT oxidation blockers – biochemical, H2O2 detection, luminescence, cherry-pick, dose response (AID 493248)
cells [4] = type: functional, cell-based
Large T antigen = Large T antigen (Simian virus 40, UniProt P03070); type: functional, Betapolyomavirus macacae;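 also: Confirmatory-stage PubChem screen for compounds that inhibit SV40 T antigen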
cells [5] = type: functional, cell-based; remark: listed apart in the source
[6] = Luminescence Cell-Based Dose Response HTS to Identify Inhibitors of 5'UTR Stem-Loop Driven Prion Protein mRNA Translation in H4 Neuroglioblastoma Cells. [Related pubchem assays: 1827 (Project Summary), 1813 (Primary HTS)]; type: functional
[7] = alpha-synuclein stem-loop luciferase translation blockers – H4 neuroglioma cells, luminescence, confirmation (AID 1988); type: functional, cell-based
[8] = biological target: T3, Histone-lysine N-methyltransferase NSD2 (Homo sapiens, UniProt O96028); type: biochemical
T3 sequence (O96028 whole entry): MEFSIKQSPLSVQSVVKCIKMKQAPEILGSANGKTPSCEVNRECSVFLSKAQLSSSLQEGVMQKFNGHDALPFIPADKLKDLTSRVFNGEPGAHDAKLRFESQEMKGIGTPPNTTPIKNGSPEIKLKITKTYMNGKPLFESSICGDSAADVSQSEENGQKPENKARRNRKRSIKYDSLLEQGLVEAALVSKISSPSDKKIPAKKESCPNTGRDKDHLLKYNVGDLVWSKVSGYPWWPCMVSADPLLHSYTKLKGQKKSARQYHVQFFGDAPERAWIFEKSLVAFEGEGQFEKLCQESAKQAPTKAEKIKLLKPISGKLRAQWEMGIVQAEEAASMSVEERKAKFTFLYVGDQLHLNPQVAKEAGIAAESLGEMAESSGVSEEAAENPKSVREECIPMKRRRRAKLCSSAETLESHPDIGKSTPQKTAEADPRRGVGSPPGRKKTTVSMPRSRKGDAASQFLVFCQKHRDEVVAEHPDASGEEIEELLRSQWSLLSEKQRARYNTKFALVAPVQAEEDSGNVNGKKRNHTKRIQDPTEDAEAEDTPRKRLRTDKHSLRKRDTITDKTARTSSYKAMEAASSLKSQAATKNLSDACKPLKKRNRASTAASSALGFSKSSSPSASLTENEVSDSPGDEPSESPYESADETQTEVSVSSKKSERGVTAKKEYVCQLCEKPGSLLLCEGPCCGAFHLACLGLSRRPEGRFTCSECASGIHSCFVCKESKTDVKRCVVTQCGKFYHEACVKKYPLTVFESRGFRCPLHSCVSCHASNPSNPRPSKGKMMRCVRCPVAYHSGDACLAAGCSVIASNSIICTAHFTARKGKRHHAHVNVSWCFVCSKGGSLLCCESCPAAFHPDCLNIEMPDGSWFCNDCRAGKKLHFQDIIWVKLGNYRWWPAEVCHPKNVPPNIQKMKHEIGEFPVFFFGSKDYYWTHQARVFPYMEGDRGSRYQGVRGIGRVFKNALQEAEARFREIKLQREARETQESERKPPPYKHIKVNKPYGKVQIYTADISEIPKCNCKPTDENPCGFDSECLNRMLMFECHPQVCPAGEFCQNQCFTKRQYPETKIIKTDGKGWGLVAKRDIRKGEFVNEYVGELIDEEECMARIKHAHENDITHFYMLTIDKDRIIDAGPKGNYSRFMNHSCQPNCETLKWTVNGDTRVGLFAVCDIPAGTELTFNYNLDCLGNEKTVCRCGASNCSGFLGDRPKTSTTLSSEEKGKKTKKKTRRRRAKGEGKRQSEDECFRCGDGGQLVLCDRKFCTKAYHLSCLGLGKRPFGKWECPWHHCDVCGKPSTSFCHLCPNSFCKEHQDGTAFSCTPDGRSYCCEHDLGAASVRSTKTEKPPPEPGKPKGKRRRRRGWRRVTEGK

[9] = THP-1 cell cytotoxicity, dose response, cytotoxicity control for non-replicating M. tuberculosis project (AID 489025); type: functional
[10] = Vero E6 cell cytotoxicity, dose response, cytotoxicity control for non-replicating M. tuberculosis project, secondary assay (AID 492998); type: functional, VeroE6; conditions: Vero C1008
cells [11] = type: functional
H9c2 = assay: cells; type: functional, cell-based; conditions: Rattus norvegicus, H9c2, Myocardium;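 also: confirmatory concentration-response retest of ultra-high-throughput screening hits for modulation of myocardial damage; cell death induced by hydrogen peroxide oxidative stress; compound pretreatment for 60 min then peroxide exposure for 2 h; potency is for protecting the cells against peroxide damage rather than for killing them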
[12] = luciferase reporter signal suppression in cells – H4 neuroglioma cells, luminescence, dose response (AID 1990); type: functional, cell-based
Paired box protein Pax-8 = Paired box protein Pax-8 (Homo sapiens, UniProt Q06710); assay: PAX8 transcriptional activity inhibition in RMG-I – RMG-I cells, luciferase, cherry-pick, dose response (AID 687027); type: functional, cell-based;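 also: luciferase reporter driven by Pax8 target thyroperoxidase promoter measured by SteadyGlo luminescence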
[13] = OVCAR8 cell viability loss – plate reader, dry powder samples, PAX8 project, dose response (AID 743197); type: functional, cell-based; conditions: OVCAR-8
Cytochrome P450 1A2 = biological target: T4, Cytochrome P450 1A2 (Homo sapiens, UniProt P05177);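 also: PubChem cytochrome P450 panel assay, CYP1A2 panel member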
T4 sequence (P05177 whole entry): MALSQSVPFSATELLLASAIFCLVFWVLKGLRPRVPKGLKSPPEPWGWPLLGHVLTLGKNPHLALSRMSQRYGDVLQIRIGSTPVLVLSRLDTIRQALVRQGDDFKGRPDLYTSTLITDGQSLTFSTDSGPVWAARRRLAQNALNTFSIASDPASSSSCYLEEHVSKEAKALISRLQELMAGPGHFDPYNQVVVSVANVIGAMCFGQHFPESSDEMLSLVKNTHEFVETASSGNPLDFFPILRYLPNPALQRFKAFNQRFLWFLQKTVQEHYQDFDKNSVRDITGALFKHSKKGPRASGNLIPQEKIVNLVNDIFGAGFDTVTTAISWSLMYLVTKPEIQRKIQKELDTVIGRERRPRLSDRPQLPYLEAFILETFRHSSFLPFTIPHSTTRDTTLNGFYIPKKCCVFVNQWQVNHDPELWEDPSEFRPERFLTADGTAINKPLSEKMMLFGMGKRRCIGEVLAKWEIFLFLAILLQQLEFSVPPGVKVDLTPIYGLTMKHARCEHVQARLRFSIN

Cytochrome P450 2C9 = Cytochrome P450 2C9 (Homo sapiens, UniProt P11712)
Chain of Cytochrome P450 2C9 (P11712 whole entry): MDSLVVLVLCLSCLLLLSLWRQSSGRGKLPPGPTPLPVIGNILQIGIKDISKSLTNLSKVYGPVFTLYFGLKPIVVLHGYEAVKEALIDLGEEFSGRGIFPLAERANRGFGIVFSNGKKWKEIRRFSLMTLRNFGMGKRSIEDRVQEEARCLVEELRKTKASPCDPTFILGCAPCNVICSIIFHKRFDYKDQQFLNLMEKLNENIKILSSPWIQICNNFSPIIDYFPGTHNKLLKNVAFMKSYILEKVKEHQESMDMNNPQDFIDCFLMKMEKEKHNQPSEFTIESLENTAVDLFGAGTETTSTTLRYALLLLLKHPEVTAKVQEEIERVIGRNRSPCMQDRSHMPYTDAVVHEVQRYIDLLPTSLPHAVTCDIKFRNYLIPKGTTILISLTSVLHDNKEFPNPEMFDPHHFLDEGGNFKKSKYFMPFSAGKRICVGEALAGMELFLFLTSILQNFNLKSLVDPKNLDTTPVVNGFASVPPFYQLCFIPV

Chain of Paired box protein Pax-8 (Q06710 whole entry): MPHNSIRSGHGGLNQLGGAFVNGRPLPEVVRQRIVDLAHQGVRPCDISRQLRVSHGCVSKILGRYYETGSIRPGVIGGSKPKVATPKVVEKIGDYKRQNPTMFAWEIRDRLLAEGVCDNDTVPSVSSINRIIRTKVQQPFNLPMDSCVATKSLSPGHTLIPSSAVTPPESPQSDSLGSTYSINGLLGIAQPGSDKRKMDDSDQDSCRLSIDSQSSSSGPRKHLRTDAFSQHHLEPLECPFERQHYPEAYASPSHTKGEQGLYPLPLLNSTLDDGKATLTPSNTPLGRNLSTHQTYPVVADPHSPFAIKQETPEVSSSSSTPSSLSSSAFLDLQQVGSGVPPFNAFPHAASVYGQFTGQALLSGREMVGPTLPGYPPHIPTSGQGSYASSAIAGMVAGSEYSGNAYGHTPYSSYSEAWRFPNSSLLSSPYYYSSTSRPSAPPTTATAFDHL
Chain of Large T antigen (P03070 whole entry): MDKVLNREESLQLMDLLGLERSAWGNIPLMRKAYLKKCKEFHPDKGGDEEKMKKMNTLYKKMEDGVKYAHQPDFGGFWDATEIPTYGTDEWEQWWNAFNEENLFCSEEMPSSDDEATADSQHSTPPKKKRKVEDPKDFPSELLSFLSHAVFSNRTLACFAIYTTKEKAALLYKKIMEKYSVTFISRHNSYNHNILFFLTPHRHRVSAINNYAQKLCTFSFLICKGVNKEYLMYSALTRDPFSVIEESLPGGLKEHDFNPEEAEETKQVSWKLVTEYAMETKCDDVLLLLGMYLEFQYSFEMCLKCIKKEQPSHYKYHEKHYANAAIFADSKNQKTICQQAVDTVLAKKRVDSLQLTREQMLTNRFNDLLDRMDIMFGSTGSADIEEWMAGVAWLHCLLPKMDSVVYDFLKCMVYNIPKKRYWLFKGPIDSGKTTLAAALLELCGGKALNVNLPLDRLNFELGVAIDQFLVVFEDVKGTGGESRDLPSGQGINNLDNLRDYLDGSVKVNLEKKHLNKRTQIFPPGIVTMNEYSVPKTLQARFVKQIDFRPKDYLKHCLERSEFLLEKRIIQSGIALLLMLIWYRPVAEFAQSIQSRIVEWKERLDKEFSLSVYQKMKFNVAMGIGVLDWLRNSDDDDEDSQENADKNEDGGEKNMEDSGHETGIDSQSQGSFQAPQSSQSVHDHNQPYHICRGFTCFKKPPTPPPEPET
Chain of FAD-linked sulfhydryl oxidase ALR (P55789 whole entry): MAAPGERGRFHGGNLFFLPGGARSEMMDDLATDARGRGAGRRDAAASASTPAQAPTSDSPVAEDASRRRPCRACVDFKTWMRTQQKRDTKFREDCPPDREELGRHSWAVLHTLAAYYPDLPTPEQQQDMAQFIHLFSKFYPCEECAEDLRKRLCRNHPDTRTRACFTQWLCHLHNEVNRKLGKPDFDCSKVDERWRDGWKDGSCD

Compound: COC(=O)c1ccc(NC2CC(=O)N(c3ccccc3C)C2=O)cc1 (configuration not stated)
- IC50 (Prothrombin): > 50 µM (not active)

Compound: Cc1cccc(NC(=O)c2cnc3ccccn3c2=O)c1
- AC50 (HEK293): 2.26 µM (active)

Compound: CC(=O)C(=NNc1ccc(-n2ccc(C(F)(F)F)n2)cc1)C(C)=O
- IC50 [1]: 2.57 µM (active)

Compound: Cc1ccc(C(=O)Nc2nc(=O)n(C(=O)C3CC3)s2)cc1
- IC50 (Leucine aminopeptidase): 19.3 µM (active)

Compound: Cc1ccc(Cn2ccc(NC(=O)C3C4CCC(C4)C3C(=O)O)n2)cc1 (configuration not stated)
- IC50 (Leucine aminopeptidase): 10.2 µM (active)

Compound: CC(C)(C)SCCNS(=O)(=O)c1ccc2ccccc2c1
- IC50 [1]: > 50 µM (not active)

Compound: O=C(CN1C(=O)CCC1=O)NNc1ccc2ccccc2c1
- EC50 [2]: 3.62 µM (active)
- AC50 [3]: 0.09 µM (active)

Compound: CC(=O)n1nc(-c2cccc(C)c2)nc1SCC(=O)Nc1ccccc1
- IC50 (Prothrombin): 0.731 µM (active)

Compound: CS(=O)(=O)c1ccc(C(=O)N2CCc3ccccc3C2)cc1
- IC50 [1]: 0.514 µM (not active)

Compound: Cc1cc(C)cc(Oc2nc(-c3ccccc3)cc(C)c2S(C)(=O)=O)c1
- IC50 [1]: 6.25 µM (not active)

Compound: O=C(c1ccc(-c2ccc([N+](=O)[O-])cc2)o1)N1CCCCC1
- IC50 (Prothrombin): > 50 µM (not active)

Compound: CCc1ccc(N2CC(C(=O)Nc3ccccc3F)CC2=O)cc1 (configuration not stated)
- IC50 (Prothrombin): > 50 µM (not active)

Compound: CCOc1cc(N2CCOCC2)c(OCC)cc1NC(C)C(=O)N1CCC(C)CC1 (configuration not stated)
- EC50 (cells [4]): > 350 µM (not active)
- IC50 (Large T antigen): 17.1 µM (active)
- EC50 (cells [5]): > 350 µM (not active)

Compound: CCOC(=O)CCP(=O)(O)C(O)c1ccc(OC)cc1 (configuration not stated)
- IC50 (Leucine aminopeptidase): 8.59 µM (active)

Compound: O=C(c1nc2ccccc2s1)N1CCN(c2ccccn2)CC1
- IC50 (Prothrombin): > 50 µM (not active)

Compound: COc1cc(OC)cc(C(=O)n2cnnc2N)c1
- IC50 (Prothrombin): 0.1 µM (active)

Compound: Cc1ccc(/C=C/c2nc3ccccc3s2)s1
- EC50 [6]: 10.7 µM (active)
- EC50 [7]: 3.78 µM (active)
- AC50 (HEK293): 4.16 µM (active)

Compound: O=C(O)c1cccc(NC(=S)NC(=O)c2ccc(-c3ccccc3)cc2)c1
- IC50 [1]: > 50 µM (not active)

Compound: CCNCCNc1ccc(Cl)cc1[N+](=O)[O-]
- AC50 [8]: > 20 µM (inactive)

Compound: O=C(Nc1ncccc1O)c1ccc(S(=O)(=O)NCc2ccco2)cc1
- AC50 (HEK293): 20.7 µM (active)

Compound: C/C(=N\NC(=O)CCCNc1ccc(C)cc1)c1ccccn1
- CC50 [9]: 13.1 µM (active)
- CC50 [10]: 14.3 µM (active)
- IC50 (cells [11]): 18.4 µM (active)
- IC50 (H9c2): 13.6 µM (active)

Compound: CCc1cc(C(=O)N/N=C/c2ccc(O)cc2O)c2ccccc2n1
- EC50 [12]: 16.7 µM (active)
- EC50 (cells [4]): 9.29 µM (active)
- EC50 [6]: 13.3 µM (active)
- EC50 [7]: 7.63 µM (active)
- EC50 (cells [5]): > 350 µM (not active)

Compound: Cc1nc(-[n+]2nc(-c3ccncc3)nn2-c2ccccc2)sc1C
- AC50 [8]: > 20 µM (inactive)

Compound: Cc1ccc(S(=O)(=O)N(C)C[C@@H]2OCCCC[C@H](C)Oc3ccc(NS(=O)(=O)c4ccc(F)cc4)cc3C(=O)N([C@H](C)CO)C[C@H]2C)cc1
- AC50 (Paired box protein Pax-8): 5.5 µM (active)
- AC50 [13]: 55.9 µM (active)

Compound: C[C@@H]1CN([C@H](C)CO)C(=O)c2c(c3ccccc3n2C)-c2ccccc2CO[C@H]1CN(C)C(=O)Nc1cccc(C(F)(F)F)c1
- AC50 (Paired box protein Pax-8): 5.56 µM (active)
- AC50 [13]: > 70 µM (inactive)

Compound: C[C@@H]1CN([C@@H](C)CO)C(=O)c2c(c3ccccc3n2C)-c2ccccc2CO[C@H]1CN(C)S(=O)(=O)c1ccccc1F
- AC50 (Paired box protein Pax-8): 5.88 µM (active)
- AC50 [13]: > 70 µM (inactive)

Compound: COc1cccc(S(=O)(=O)N(C)C[C@@H]2Oc3cc(C4=CCCCC4)ccc3S(=O)(=O)N([C@@H](C)CO)C[C@H]2C)c1
- AC50 (Paired box protein Pax-8): 14.5 µM (active)
- AC50 [13]: 49.6 µM (active)

Compound: C/C(=N\Nc1nc2ccccc2nc1C)c1ccccc1O
- CC50 [9]: > 40 µM (active)
- CC50 [10]: > 20 µM (active)
- IC50 (cells [11]): 2.54 µM (active)

Compound: COc1cc(C(=O)Oc2ccccc2/C=N/NC(=O)c2ccc(C)cc2)cc(OC)c1OC
- EC50 (cells [4]): > 350 µM (not active)
- EC50 (cells [5]): > 350 µM (not active)
- AC50 (Cytochrome P450 1A2): 2.24 µM (inconclusive)
- AC50 (Cytochrome P450 2C9): 0.316 µM (inconclusive)

Compound: COc1cc(/C=N/Nc2nc3ccccc3o2)cc(OC)c1O
- IC50 (Large T antigen): 8.87 µM (active)
- AC50 [3]: 0.025 µM (active)
